# Measurements taken from the kinase profiling compilation of Christmann-Franck et al. (2016).
# Assays:
# Assay in all cases: radiometric filter-binding kinase assay, Kinase HotSpot
# Details in all cases: compound 0.5 µM; ATP 10 µM
# [1] = target: FGFR1 (human) (UniProt P11362)
# [2] = target: MAPK1 (human) (UniProt P28482)
# [3] = target: MLTK (human) (UniProt Q9NYL2)
# [4] = target: PKN1 (human) (UniProt Q16512)
# [5] = target: PRKD3 (human) (UniProt O94806)
# [6] = target: NEK2 (human) (UniProt P51955)
# [7] = target: PTK6 (human) (UniProt Q13882)
# [8] = target: CAMK2B (human) (UniProt Q13554)
# CAMK2B (human), sequence (Q13554 whole entry, looked up): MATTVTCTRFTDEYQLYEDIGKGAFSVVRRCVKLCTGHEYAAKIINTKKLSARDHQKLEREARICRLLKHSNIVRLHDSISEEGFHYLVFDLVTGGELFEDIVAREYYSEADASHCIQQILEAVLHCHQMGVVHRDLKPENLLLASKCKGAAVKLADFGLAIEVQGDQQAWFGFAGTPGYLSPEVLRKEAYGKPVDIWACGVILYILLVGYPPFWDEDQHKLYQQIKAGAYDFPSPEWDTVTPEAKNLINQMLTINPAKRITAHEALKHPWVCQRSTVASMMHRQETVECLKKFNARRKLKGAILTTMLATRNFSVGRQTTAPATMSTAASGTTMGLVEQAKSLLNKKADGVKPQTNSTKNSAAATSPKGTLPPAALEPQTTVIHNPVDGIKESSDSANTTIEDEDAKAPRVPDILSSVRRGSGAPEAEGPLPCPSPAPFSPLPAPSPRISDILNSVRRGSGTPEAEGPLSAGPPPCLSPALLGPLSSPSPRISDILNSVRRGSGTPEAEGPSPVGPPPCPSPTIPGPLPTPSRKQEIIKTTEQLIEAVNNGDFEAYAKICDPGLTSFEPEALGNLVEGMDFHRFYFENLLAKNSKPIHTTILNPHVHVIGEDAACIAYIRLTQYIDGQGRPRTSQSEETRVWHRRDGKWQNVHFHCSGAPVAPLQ
# [9] = target: WNK3 (human) (UniProt Q9BYP7)
# [10] = target: WEE1 (human) (UniProt P30291)
# [11] = target: PDGFRA (human) (UniProt P16234)
# [12] = target: ROS1 (human) (UniProt P08922)
# [13] = target: MAPKAPK3 (human) (UniProt Q16644)
# [14] = target: SRPK1 (human) (UniProt Q96SB4)
# [15] = target: RPS6KA5 KD2 (human) (UniProt O75582)
# [16] = target: STK4 (human) (UniProt Q13043)
# [17] = target: PRKCE (human) (UniProt Q02156)
# [18] = target: PKN2 (human) (UniProt Q16513)
# [19] = target: JAK2 JH1 JH2 (human) (UniProt O60674)
# [20] = target: MYLK2 (human) (UniProt Q9H1R3)
# [21] = target: TSSK1B (human) (UniProt Q9BXA7)
# [22] = target: BRSK1 (human) (UniProt Q8TDC3)
# [23] = target: RPS6KA1 KD1 KD2 (human) (UniProt Q15418)
# [24] = target: MAP3K10 (human) (UniProt Q02779)
# [25] = target: JAK1 JH1 catalytic (human) (UniProt P23458)
# [26] = target: MUSK (human) (UniProt O15146)
# [27] = target: CSNK1A1 (human) (UniProt P48729)
# CSNK1A1 (human), sequence (P48729 whole entry, looked up): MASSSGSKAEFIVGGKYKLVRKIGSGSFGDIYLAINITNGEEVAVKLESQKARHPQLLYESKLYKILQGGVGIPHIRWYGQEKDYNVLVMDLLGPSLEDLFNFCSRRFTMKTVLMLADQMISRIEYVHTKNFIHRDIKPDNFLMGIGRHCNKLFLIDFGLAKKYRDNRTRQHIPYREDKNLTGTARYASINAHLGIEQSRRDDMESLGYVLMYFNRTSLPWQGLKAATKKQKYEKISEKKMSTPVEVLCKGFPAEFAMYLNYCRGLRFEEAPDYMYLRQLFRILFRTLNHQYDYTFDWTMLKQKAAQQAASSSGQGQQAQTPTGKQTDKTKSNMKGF
# [28] = target: MAP3K11 (human) (UniProt Q16584)
# [29] = target: CAMKK1 (human) (UniProt Q8N5S9)
# CAMKK1 (human), sequence (Q8N5S9 whole entry, looked up): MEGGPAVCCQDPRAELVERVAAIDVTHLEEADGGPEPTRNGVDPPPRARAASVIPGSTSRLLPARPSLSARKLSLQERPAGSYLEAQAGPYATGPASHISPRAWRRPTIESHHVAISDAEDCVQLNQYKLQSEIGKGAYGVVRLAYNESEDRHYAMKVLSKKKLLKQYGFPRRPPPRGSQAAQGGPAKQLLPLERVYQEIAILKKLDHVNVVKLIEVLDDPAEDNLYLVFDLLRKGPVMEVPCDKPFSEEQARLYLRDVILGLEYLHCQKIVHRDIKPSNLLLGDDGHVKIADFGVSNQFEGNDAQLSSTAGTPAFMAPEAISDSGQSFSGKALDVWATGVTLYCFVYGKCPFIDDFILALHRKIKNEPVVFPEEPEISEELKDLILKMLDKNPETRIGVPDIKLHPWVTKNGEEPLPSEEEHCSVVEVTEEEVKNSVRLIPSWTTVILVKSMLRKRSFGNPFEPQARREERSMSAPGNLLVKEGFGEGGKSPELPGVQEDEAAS
# [30] = target: IKBKE (human) (UniProt Q14164)
# [31] = target: MAP4K5 (human) (UniProt Q9Y4K4)
# [32] = target: GSK3B (human) (UniProt P49841)
# [33] = target: MERTK (human) (UniProt Q12866)
# [34] = target: EPHA5 (human) (UniProt P54756)
# [35] = target: EGFR (human) (UniProt P00533)
# EGFR (human), sequence (P00533 whole entry, looked up): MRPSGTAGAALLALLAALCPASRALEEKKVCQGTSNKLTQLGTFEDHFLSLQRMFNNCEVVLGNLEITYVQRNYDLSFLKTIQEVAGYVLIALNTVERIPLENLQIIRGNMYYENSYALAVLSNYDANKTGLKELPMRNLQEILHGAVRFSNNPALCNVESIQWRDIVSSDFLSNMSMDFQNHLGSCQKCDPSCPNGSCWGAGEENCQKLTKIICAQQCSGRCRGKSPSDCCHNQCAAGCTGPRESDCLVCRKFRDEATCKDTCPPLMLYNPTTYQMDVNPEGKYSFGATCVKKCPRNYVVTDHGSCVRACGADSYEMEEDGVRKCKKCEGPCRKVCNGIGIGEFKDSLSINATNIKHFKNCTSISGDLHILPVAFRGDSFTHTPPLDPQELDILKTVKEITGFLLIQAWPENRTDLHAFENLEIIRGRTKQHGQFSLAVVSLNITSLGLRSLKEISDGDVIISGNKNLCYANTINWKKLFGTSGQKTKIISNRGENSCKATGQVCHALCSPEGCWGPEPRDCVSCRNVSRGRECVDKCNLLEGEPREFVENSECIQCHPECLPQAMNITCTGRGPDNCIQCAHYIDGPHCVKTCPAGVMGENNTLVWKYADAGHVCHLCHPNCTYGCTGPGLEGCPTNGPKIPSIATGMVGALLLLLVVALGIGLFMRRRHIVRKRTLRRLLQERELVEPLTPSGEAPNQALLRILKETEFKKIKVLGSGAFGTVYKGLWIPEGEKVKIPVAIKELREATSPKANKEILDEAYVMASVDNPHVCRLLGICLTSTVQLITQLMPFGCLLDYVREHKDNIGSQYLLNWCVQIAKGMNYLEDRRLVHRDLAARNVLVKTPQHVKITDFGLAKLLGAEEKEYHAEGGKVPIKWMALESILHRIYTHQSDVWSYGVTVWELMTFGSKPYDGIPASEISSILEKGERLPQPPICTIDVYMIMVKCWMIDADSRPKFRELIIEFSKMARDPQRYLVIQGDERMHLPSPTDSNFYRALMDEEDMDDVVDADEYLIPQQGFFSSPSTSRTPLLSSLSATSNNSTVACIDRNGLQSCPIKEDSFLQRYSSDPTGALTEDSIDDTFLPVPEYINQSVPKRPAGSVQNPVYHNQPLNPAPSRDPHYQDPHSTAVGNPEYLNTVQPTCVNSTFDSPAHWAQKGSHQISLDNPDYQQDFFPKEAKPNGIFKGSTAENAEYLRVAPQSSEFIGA
# [36] = target: MAPK11 (human) (UniProt Q15759)
# [37] = target: SRMS (human) (UniProt Q9H3Y6)
# [38] = target: RPS6KA6 KD1 KD2 (human) (UniProt Q9UK32)
# [39] = target: CDK4 CCND3 (human) (UniProt P30281+P11802)
# [40] = target: CDK9 CCNK (human) (UniProt O75909+P50750)
# CDK9 CCNK (human), sequence (O75909 whole entry, looked up): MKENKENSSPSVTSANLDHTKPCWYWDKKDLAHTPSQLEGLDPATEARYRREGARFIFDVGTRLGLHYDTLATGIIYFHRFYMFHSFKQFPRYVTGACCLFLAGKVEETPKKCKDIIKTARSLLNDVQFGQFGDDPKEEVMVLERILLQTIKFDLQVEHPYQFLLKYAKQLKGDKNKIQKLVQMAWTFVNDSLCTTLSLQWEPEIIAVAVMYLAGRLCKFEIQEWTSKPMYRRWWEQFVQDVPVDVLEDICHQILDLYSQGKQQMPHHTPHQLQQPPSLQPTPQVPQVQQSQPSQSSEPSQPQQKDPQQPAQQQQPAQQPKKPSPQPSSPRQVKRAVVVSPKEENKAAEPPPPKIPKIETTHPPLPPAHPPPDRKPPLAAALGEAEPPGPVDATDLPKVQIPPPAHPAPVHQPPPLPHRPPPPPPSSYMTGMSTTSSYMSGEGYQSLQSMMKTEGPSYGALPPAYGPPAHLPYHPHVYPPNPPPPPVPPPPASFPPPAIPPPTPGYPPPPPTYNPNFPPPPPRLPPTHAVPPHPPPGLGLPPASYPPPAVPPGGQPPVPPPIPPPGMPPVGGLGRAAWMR
# CDK9 CCNK (human), sequence (P50750 whole entry, looked up): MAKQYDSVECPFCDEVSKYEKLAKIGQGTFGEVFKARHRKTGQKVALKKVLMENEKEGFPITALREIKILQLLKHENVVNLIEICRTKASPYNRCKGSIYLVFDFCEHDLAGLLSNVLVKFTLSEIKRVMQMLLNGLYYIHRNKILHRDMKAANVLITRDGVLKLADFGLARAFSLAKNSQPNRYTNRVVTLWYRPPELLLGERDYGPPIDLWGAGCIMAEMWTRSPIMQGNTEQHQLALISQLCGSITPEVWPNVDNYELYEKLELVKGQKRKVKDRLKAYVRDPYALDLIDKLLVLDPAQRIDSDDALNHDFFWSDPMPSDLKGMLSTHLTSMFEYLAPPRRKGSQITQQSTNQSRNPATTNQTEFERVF
# [41] = target: TYRO3 (human) (UniProt Q06418)
# PKN1 (human), sequence (Q16512 whole entry, looked up): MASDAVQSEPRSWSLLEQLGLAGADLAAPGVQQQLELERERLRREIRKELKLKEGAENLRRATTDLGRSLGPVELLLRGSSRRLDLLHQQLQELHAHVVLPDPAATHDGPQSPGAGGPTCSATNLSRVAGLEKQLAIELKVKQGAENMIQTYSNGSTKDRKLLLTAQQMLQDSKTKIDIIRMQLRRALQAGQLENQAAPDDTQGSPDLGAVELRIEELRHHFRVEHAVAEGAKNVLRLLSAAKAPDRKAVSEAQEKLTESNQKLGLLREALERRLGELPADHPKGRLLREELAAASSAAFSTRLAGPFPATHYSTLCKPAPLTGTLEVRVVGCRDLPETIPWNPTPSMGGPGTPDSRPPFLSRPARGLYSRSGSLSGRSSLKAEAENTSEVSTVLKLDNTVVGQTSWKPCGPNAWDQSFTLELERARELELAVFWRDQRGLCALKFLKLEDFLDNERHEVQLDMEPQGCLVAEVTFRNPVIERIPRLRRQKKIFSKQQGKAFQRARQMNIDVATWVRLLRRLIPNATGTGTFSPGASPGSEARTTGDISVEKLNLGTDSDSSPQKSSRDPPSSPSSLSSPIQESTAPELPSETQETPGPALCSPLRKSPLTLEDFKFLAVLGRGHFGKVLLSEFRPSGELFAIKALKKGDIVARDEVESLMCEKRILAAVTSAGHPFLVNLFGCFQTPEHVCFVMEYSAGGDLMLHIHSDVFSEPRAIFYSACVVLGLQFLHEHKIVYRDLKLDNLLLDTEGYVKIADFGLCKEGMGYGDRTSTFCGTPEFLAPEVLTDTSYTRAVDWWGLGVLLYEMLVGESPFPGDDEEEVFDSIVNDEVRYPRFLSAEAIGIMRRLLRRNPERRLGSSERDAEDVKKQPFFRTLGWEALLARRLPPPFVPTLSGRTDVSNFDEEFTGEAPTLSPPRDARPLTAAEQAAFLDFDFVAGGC
# MAPK1 (human), sequence (P28482 whole entry, looked up): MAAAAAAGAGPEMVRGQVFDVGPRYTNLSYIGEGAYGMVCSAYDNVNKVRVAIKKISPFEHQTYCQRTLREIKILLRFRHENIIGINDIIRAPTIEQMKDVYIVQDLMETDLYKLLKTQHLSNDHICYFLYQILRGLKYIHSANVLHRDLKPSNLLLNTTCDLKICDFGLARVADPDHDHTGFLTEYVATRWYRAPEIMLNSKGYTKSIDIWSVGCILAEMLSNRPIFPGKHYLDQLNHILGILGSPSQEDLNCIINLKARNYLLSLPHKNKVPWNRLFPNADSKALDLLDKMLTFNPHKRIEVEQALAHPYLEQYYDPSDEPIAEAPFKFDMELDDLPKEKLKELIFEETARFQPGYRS
structure (smiles),measurement,setting,value
O=C(O)/C=C/c1cc(Br)c(Br)c(Br)c1Br,residual activity,[1],95.2%
same,residual activity,[2],98.5%
same,residual activity,[3],89.4%
same,residual activity,[4],85.5%
same,residual activity,[5],87.9%
same,residual activity,[6],92%
same,residual activity,[7],95%
same,residual activity,[8],56.1%
same,residual activity,[9],89.8%
same,residual activity,[10],99.1%
same,residual activity,[11],105%
same,residual activity,[12],94%
same,residual activity,[13],86.3%
same,residual activity,[14],79.3%
same,residual activity,[15],88.3%
same,residual activity,[16],102%
same,residual activity,[17],88.6%
same,residual activity,[18],95.6%
same,residual activity,[19],101%
same,residual activity,[20],86.8%
same,residual activity,[21],79.2%
same,residual activity,[22],80.5%
same,residual activity,[23],90.5%
same,residual activity,[24],92.3%
same,residual activity,[25],98.8%
same,residual activity,[26],53.6%
same,residual activity,[27],79.3%
same,residual activity,[28],96.3%
same,residual activity,[29],105%
same,residual activity,[30],96.8%
same,residual activity,[31],80.3%
same,residual activity,[32],105%
same,residual activity,[33],92.4%
same,residual activity,[34],88.7%
same,residual activity,[35],98.4%
same,residual activity,[36],92.7%
same,residual activity,[37],89.3%
same,residual activity,[38],86.9%
same,residual activity,[39],97.9%
same,residual activity,[40],65.3%
same,residual activity,[41],93.3%
O=C1Nc2ccccc2/C1=C1/Nc2ccccc2/C1=N\OCCC(O)CO (stereo not drawn),residual activity,[1],27.9%
same,residual activity,[2],89.8%
same,residual activity,[3],76.4%
same,residual activity,[4],49.9%
same,residual activity,[5],68.1%
same,residual activity,[6],114%
same,residual activity,[7],73.3%
same,residual activity,[8],57.9%
same,residual activity,[9],79.7%
same,residual activity,[10],82%
same,residual activity,[11],76.7%
same,residual activity,[12],27%
same,residual activity,[13],98.9%
same,residual activity,[14],71.3%
same,residual activity,[15],37.5%
same,residual activity,[16],8.29%
same,residual activity,[17],92.2%
same,residual activity,[18],90.1%
same,residual activity,[19],43.1%
same,residual activity,[20],27.3%
same,residual activity,[21],76.6%
same,residual activity,[22],39.5%
same,residual activity,[23],8.85%
same,residual activity,[24],86.9%
same,residual activity,[25],25.9%
same,residual activity,[26],58%
same,residual activity,[27],84.8%
same,residual activity,[28],10.5%
same,residual activity,[29],26.2%
same,residual activity,[30],45.7%
same,residual activity,[31],15.5%
same,residual activity,[32],12.6%
same,residual activity,[33],49.4%
same,residual activity,[34],68%
same,residual activity,[35],88.1%
same,residual activity,[36],95.2%
same,residual activity,[37],102%
same,residual activity,[38],16.4%
same,residual activity,[39],66.1%
same,residual activity,[40],33.2%
same,residual activity,[41],71.5%
O=C1NC(=O)/C(=C\c2ccc3nccnc3c2)S1,residual activity,[1],88.5%
same,residual activity,[2],85.2%
same,residual activity,[3],93.6%
same,residual activity,[4],101%
same,residual activity,[5],94.7%
same,residual activity,[6],92.2%
same,residual activity,[7],95.1%
same,residual activity,[8],89.3%
same,residual activity,[9],85.8%
same,residual activity,[10],83.1%
same,residual activity,[11],106%
same,residual activity,[12],92.3%
same,residual activity,[13],104%
same,residual activity,[14],110%
same,residual activity,[15],87.8%
same,residual activity,[16],95%
same,residual activity,[17],101%
same,residual activity,[18],107%
same,residual activity,[19],97.4%
same,residual activity,[20],97.2%
same,residual activity,[21],78.6%
same,residual activity,[22],92.4%
same,residual activity,[23],80.7%
same,residual activity,[24],94.2%
same,residual activity,[25],103%
same,residual activity,[26],16.2%
same,residual activity,[27],89.2%
same,residual activity,[28],97.5%
same,residual activity,[29],81.8%
same,residual activity,[30],99.5%
same,residual activity,[31],85.4%
same,residual activity,[32],93.4%
same,residual activity,[33],92.1%
same,residual activity,[34],99.5%
same,residual activity,[35],81.6%
same,residual activity,[36],99.2%
same,residual activity,[37],96.6%
same,residual activity,[38],87.6%
same,residual activity,[39],93.9%
same,residual activity,[40],86%
same,residual activity,[41],99.1%
